Test results from patent US20100075907A1, “NEUROMEDIN U RECEPTOR AGONISTS AND USES THEREOF” (priority 2006, published 2010).
Non-standard residues stand in square brackets, D forms with d. Residues, ends and D or L forms follow the SMILES beside them. No end group written: not given here. *: point of attachment. Palmitoyl = CCCCCCCCCCCCCCCC(=O)*

Tests used:
Type in all cases: cell-based
mouse NMUR2 = mouse NMUR2 (Mus musculus, UniProt Q8BZ39); assay: FLIPR calcium mobilization assay, mouse NMUR2; design: expressed in transfected cells; host or cells: FLP-In CHO or HEK-293 FLP-In cells (pcDNA5); conditions: for EC50: FLIPR
mouse NMUR2, sequence (Q8BZ39 whole entry): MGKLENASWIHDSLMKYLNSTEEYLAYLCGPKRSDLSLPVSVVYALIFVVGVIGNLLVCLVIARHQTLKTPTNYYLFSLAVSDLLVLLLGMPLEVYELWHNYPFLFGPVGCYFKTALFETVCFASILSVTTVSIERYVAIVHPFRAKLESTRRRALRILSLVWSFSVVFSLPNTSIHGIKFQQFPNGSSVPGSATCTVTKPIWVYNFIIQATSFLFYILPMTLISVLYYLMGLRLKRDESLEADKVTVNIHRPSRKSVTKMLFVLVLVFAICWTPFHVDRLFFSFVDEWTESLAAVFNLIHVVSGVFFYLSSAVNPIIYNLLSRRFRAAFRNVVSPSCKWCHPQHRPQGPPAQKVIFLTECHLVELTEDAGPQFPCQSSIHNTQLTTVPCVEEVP
Excerpt: (§1) Human, mouse or rat cDNAs encoding NMUR1 or NMUR2 (as described in Howard et al. Nature 406: 70-74 (2000) were subcloned in pcDNA5 (Invitrogen) and transfected into FLP-In CHO cells and HEK-293 FLP-In cells purchased from Invitrogen (Carlsbad, Calif.) using lipofectamine (Invitrogen). The Flp-In system allows integration and expression of a particular gene of interest at a specific genomic location utilizing the Flp recombinase from yeast. The transfected cells were selected by growth in medium containing 200 μg/mL hygromycin (Invitrogen). Populations were frozen at early passage numbers, and these stocks were used for further studies. Stable clones that expressed the mRNAs were identified functionally by FLIPR as well as by RT-PCR. […] Two different rodent NMUR1 cell lines were thus generated: one with the codon as predicted from the genomic databases and another cell line with an engineered methionine (ATG) as the start codon. Additionally, stable cell lines expressing the human receptors were generated in HEK-293/aeq17 cells which stably express the aequorin gene under the CMV promoter. The human NMUR2 cDNA was cloned into pcDNA3.1 and human NMUR1 was subcloned into pIRES-puro (Clontech, Mountain View, Calif.), after transfection cells were selected in media containing G418 and either hygromycin (NMUR2) or puromycin (NMUR1).
(§2) The NMU receptors signal primarily through Gαq/11 proteins; therefore calcium mobilization assays can be utilized for functional activity.
(§3) Stable cell lines expressing human and or rodent NMUR1 or human NMUR2 receptors were plated at a density of 12,000 cells per well overnight on poly-lysine coated 384-well black-walled plates. The following day, the media was removed from the plates and the cells were subsequently loaded with Fluo-3 (Molecular Probes), a calcium sensitive dye, diluted in FLIPR buffer (1× Hank's buffered saline containing 20 mM HEPES, 0.1% BSA, 2.5 mM probenecid (Sigma) and 1.6 mM TR40). All reagents are from Invitrogen unless otherwise noted. Peptide stocks were resuspended in DMSO at a stock concentration of 2 mM and diluted in FLIPR buffer on the day of the experiment to a 4 μM working stock solution.
(§4) After a 90 minute incubation at room-temperature, cell plates were loaded onto a FLIPR (Molecular Devices) to monitor cellular fluorescence (excitation=488 nm; emission=540 nm) before and after compound/peptide addition. Eight to twelve point dose responses were tested on NMUR-expressing cell lines using FLIPR with 1 μM peptide as the highest dose. The response after peptide addition was taken as the maximum fluorescence units minus the fluorescence immediately prior to stimulation for each well. EC50 values were calculated using GraphPad Prism (San Diego, Calif.) software.
(§5) In vitro responses of Neuromedin U receptor agonists (NMU1 to NMU25) in the FLIPR assay for human (Table 3), mouse (Table 4) and rat (Table 5) NMUR1 and NMUR2. EC50s are reported in nM values. Percent activity refers to the maximum response at 1 μM compared to the hNMU-25 response at the same concentration. NT=not tested.

hNMUR1 [1] = molecular target: T1, hNMUR1 (Homo sapiens, UniProt Q9HB89); assay: FLIPR calcium mobilization assay, human NMUR1; design: expressed in transfected cells; host or cells: FLP-In CHO or HEK-293 FLP-In cells (pcDNA5); HEK-293/aeq17 lines (pIRES-puro) were also made; conditions: for EC50: FLIPR
T1 sequence (Q9HB89 1-426): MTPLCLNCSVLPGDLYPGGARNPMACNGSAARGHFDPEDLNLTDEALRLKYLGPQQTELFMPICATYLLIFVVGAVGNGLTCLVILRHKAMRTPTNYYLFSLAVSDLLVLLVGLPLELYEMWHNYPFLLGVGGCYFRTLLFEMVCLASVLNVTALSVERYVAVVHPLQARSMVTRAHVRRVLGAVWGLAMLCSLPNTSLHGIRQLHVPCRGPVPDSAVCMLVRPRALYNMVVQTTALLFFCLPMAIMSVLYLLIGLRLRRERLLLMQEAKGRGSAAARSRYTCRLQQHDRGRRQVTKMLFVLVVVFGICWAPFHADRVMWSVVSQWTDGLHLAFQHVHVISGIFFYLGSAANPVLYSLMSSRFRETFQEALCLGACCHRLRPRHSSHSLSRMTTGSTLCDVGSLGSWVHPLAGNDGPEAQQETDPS

hNMUR1 [2] = molecular target: T1, hNMUR1; assay: In vitro functional assay, HEK-hR1 cells; design: expressed in transfected cells; host or cells: FLP-In CHO or HEK-293 FLP-In cells (pcDNA5); HEK-293/aeq17 lines (pIRES-puro) were also made; conditions: Table 8, HEK-hR1, functional
Excerpt: as §1, §2, §3, §4
In addition to FLIPR, NMU receptor function can also be evaluated using an aequorin assay. Stable cell lines expressing the aequorin jelly fish gene can be used to report the activation of GPCRs by monitoring intracellular calcium mobilization. The objective is to identify compounds which specifically stimulate aequorin bioluminescence. Calcium-dependent luminescence is generated by the treatment of cells with the coelenterate luciferin, coelenterazine. Briefly, confluent monolayers of HEK-293/aeq 17 cells expressing hNMUR1 or hNMUR2 are “charged” with coelenterazine (Molecular Probes, Carlsbad, Calif.). Confluent T75 flasks are rinsed with media containing 300 μM glutathione and 0.1% FBS. Cells are incubated at 37° C. for one hour in 8 mL media, 0.1% FBS, 300 μM glutathione, and 20 μM coelenterazine. T75 flasks are subsequently rinsed with 6 mL ECB buffer (140 mM NaCl, 20 mM KCl, 20 mM HEPES, 5 mM glucose, 1 mM MgCl, 1 mM CaCl2, 0.1 mg/mL BSA, PH 7.3-7.4). Cells are removed from the flask in ECB buffer, pelleted, and resuspended at a density of 2×10^5 cells/mL. Agonists are added to the cells and activity is determined using a luminometer. […]

rat NMUR2 = rat NMUR2 (Rattus norvegicus, UniProt Q9ESQ4); assay: FLIPR calcium mobilization assay, rat NMUR2; design: expressed in transfected cells; host or cells: FLP-In CHO or HEK-293 FLP-In cells (pcDNA5); conditions: for EC50: FLIPR
rat NMUR2, sequence (Q9ESQ4 whole entry): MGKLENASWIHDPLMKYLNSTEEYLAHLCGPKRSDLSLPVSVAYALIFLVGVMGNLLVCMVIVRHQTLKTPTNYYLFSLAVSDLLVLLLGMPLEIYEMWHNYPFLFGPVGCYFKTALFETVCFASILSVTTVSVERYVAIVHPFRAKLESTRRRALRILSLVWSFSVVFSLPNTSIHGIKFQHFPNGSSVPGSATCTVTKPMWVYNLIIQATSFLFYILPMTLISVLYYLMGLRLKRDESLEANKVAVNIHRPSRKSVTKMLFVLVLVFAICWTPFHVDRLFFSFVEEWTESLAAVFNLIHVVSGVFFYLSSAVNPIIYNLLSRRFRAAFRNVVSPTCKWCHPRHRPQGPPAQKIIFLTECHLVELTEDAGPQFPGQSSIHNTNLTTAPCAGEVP
Excerpt: as §1, §2, §3, §4, §5

[3] = maximum response at 1 μM compared to hNMU-25, mouse NMUR2
[4] = maximum response at 1 μM compared to hNMU-25 response at same concentration, human NMUR1
[5] = maximum response at 1 μM compared to hNMU-25, rat NMUR2

## CC(C)C[C@@H](NC(=O)[C@H](Cc1ccccc1)NC(=O)[C@H](Cc1ccc(O)cc1)NC(=O)CNC(=O)[C@H](CCCNC(=N)N)NC(=O)[C@H](CO)NC(=O)[C@H](CCC(N)=O)NC(=O)[C@H](CO)NC(=O)[C@H](C)NC(=O)[C@H](Cc1ccccc1)NC(=O)[C@@H]1CCCN1C(=O)[C@H](CO)NC(=O)[C@H](CCC(N)=O)NC(=O)[C@H](Cc1ccccc1)NC(=O)[C@H](CCC(=O)O)NC(=O)[C@H](CCC(=O)O)NC(=O)[C@H](CC(=O)O)NC(=O)[C@@H](NC(=O)[C@H](CCCNC(=N)N)NC(=O)[C@@H](N)Cc1ccccc1)C(C)C)C(=O)N[C@@H](Cc1c[nH]c2ccccc12)C(=O)N[C@@H](CCCNC(=N)N)C(=O)N1CCC[C@H]1C(=O)N[C@@H](CCCNC(=N)N)C(=O)N[C@@H](CC(N)=O)C(N)=O [Agonist H] (H-FRVDEEFQSPFASQSRGYF[dL]WRPRN-NH2; N-terminus assumed)
Mouse NMUR2; functional data, mouse R2
  IC50: > 1 µM
Mouse NMUR2; functional, mouse R2, relative to native hNMU responses
  % Activity: 40%
hNMUR1 [1]; functional, human R1, relative to native hNMU responses
  % Activity: 90%
hNMUR1 [2]
  % Activity: 88%
  IC50: 0.019 µM
Rat NMUR2; functional data, rat R2
  IC50: > 1 µM
Rat NMUR2; functional, rat R2, relative to native hNMU responses
  % Activity: 42%

## Ac-FRVDEEFQSPFASQSRGYFLFRPRN-NH2 [NMU2]
Mouse NMUR2; mouse NMUR2
  EC50: 0.0012 µM
Mouse NMUR2; [3]
  % Activity: 100%
hNMUR1 [1]; human NMUR1
  EC50: 0.0055 µM
hNMUR1 [1]; [4]
  % Activity: 99.0%
Rat NMUR2; rat NMUR2
  EC50: 0.0022 µM
Rat NMUR2; [5]
  % Activity: 100%

## Ac-FRVDEEFQSPFASQSRPYFLFRPRN-NH2 [NMU5]
Mouse NMUR2; mouse NMUR2
  EC50: 0.001 µM
Mouse NMUR2; [3]
  % Activity: 100%
hNMUR1 [1]; [4]
  % Activity: 98.1%
Rat NMUR2; [5]
  % Activity: 100%

## GYFLFRPRN-NH2 [NMU3]
Mouse NMUR2; [3]
  % Activity: 100%
hNMUR1 [1]; [4]
  % Activity: 98.9%
Rat NMUR2; [5]
  % Activity: 100%

## H-FRVDEEFQSPFASQSRPYFLFRPRN-NH2 [NMU4]
Mouse NMUR2; mouse NMUR2
  EC50: 0.0012 µM
Mouse NMUR2; [3]
  % Activity: 100%
hNMUR1 [1]; [4]
  % Activity: 97.0%
Rat NMUR2; [5]
  % Activity: 100%

## Pam-C2FRVDEEFQSPFASQSRGYFLFRPRN-CONH2 ({Palmitoyl-C(PEG 40 kDa)}-FRVDEEFQSPFASQSRGYFLFRPRN-NH2) [NMU25, Pam = palmitoyl; C2 = Cys(PEG)240 kDa]
Mouse NMUR2; mouse NMUR2
  EC50: 0.0188 µM
hNMUR1 [1]; human NMUR1
  EC50: 0.168 µM
hNMUR1 [1]; [4]
  % Activity: 83.0%
Rat NMUR2; rat NMUR2
  EC50: 0.0378 µM
Rat NMUR2; [5]
  % Activity: 96.4%
